The test is described as follows: Inhibition of human RANKL-induced osteoclastogenesis in RANKL cultured mouse bone marrow cells assessed as reduction in RANKL/M-CSF-induced TRAP activity preincubated with RANKL for 1 hr followed by cell addition and subsequent media replenishment every 48 hrs for 4 days.

This note sets out measurements from BindingDB's records for doi:10.1021/acs.jmedchem.0c01316 (Agricultural University of Athens, 2020).

Usually IC50 stands for the midpoint of a concentration-inhibition curve.

For `CN(CCN(C)Cc1cn(S(=O)(=O)c2ccccc2)c2ccccc12)Cc1coc2ccccc2c1=O`, the IC50 turned out to be 2500 nM.
The same measure for `N#Cc1ccc(S(=O)(=O)N2CCN(C(=O)c3cn(S(=O)(=O)c4cccc([N+](=O)[O-])c4)c4ccccc34)CC2)cc1`: 5100 nM; for `O=C(c1cn(S(=O)(=O)c2cccc([N+](=O)[O-])c2)c2ccccc12)N1CCN(S(=O)(=O)c2ccccc2)CC1`: 1400 nM.
Take `O=C(c1cn(S(=O)(=O)c2cccc([N+](=O)[O-])c2)c2ccccc12)N1CCN(S(=O)(=O)c2cccc([N+](=O)[O-])c2)CC1`: the IC50 amounted to 6400 nM.
As for `CN(CCN(C)S(=O)(=O)c1cccc([N+](=O)[O-])c1)C(=O)c1cn(S(=O)(=O)c2cccc([N+](=O)[O-])c2)c2ccccc12`, the figure is 1900 nM.
In the case of `CN(CCN(C)C(=O)c1cn(S(=O)(=O)c2cccc([N+](=O)[O-])c2)c2ccccc12)C(=O)c1coc2ccccc2c1=O`, the IC50 was determined as 5070 nM.
The same measure for `Cc1cc2occ(CN(C)CCN(C)Cc3cn(-c4cccc(C(F)(F)F)c4)c4ccccc34)c(=O)c2cc1C`: 1000 nM; for `CN(CCN(C)C(=O)c1cn(S(=O)(=O)c2ccccc2)c2ccccc12)C(=O)c1coc2ccccc2c1=O`: 2860 nM.
The same measure for `CN(CCN(C)S(=O)(=O)c1ccccc1)C(=O)c1cn(S(=O)(=O)c2cccc([N+](=O)[O-])c2)c2ccccc12`: 2700 nM; for `CN(CCN(C)S(=O)(=O)c1ccc(C#N)cc1)C(=O)c1cn(S(=O)(=O)c2cccc([N+](=O)[O-])c2)c2ccccc12`: 2000 nM.
`CN(CCN(C)C(=O)c1cn(-c2cccc([N+](=O)[O-])c2)c2ccccc12)C(=O)c1coc2ccccc2c1=O`: the IC50 was determined as 1880 nM.
